Values after ≈ are worked out from the molar mass of the structure shown.
Key:
Assay type in all cases: functional
Conditions in all cases: time 16-24 hrs
Staphylococcus aureus [1] = assay: Antibacterial activity against vancomycin-intermediate Staphylococcus aureus Mu50 incubated for 16 to 24 hrs by broth microdilution assay
Staphylococcus aureus [2] = assay: Antibacterial activity against methicillin-resistant Staphylococcus aureus USA300 LAC incubated for 16 to 24 hrs by broth microdilution assay
Enterococcus faecium [3] = assay: Antibacterial activity against vancomycin-resistant Enterococcus faecium Efm-HS-0649 harboring VanA phenotype incubated for 16 to 24 hrs by broth microdilution assay
Enterococcus faecium [4] = assay: Antibacterial activity against vancomycin-resistant Enterococcus faecium Efm-HS-08257 harboring VanM phenotype incubated for 16 to 24 hrs by broth microdilution assay
Enterococcus faecium [5] = assay: Antibacterial activity against vancomycin-resistant Enterococcus faecium Efm-HS-vb01 harboring VanB phenotype incubated for 16 to 24 hrs by broth microdilution assay
Enterococcus faecium [6] = assay: Antibacterial activity against vancomycin-resistant Enterococcus faecium Efm-HS-vb02 harboring VanB phenotype incubated for 16 to 24 hrs by broth microdilution assay
Escherichia coli = assay: Antibacterial activity against Escherichia coli AB1157 incubated for 16 to 24 hrs by broth microdilution assay
Acinetobacter baumannii [7] = assay: Antibacterial activity against carbapenem-resistant Acinetobacter baumannii CRAB-1 clinical isolate incubated for 16 to 24 hrs by broth microdilution assay
Acinetobacter baumannii [8] = assay: Antibacterial activity against Acinetobacter baumannii ATCC19606 incubated for 16 to 24 hrs by broth microdilution assay
Pseudomonas aeruginosa = assay: Antibacterial activity against Pseudomonas aeruginosa PAO1 incubated for 16 to 24 hrs by broth microdilution assay
Klebsiella pneumoniae = assay: Antibacterial activity against Klebsiella pneumoniae KP-1 incubated for 16 to 24 hrs by broth microdilution assay

| SMILES | MIC (Staphylococcus aureus [1]) | MIC (Staphylococcus aureus [2]) | MIC (Enterococcus faecium [3]) | MIC (Enterococcus faecium [4]) | MIC (Enterococcus faecium [5]) | MIC (Enterococcus faecium [6]) | MIC (Escherichia coli) | MIC (Acinetobacter baumannii [7]) | MIC (Acinetobacter baumannii [8]) | MIC (Pseudomonas aeruginosa) | MIC (Klebsiella pneumoniae) |
| --- | --- | --- | --- | --- | --- | --- | --- | --- | --- | --- | --- |
| CN[C@H](CC(C)C)C(=O)N[C@H]1C(=O)N[C@@H](CC(N)=O)C(=O)N[C@H]2C(=O)N[C@H]3C(=O)N[C@H](C(=O)N[C@H](C(=O)NCCC[S+](C)CC(O)COc4ccc(-c5ccc(Cl)cc5)cc4)c4cc(O)cc(O)c4-c4cc3ccc4O)[C@H](O)c3ccc(c(Cl)c3)Oc3cc2cc(c3O[C@@H]2O[C@H](CO)[C@@H](O)[C@H](O)[C@H]2O[C@H]2C[C@](C)(N)[C@H](O)[C@H](C)O2)Oc2ccc(cc2Cl)[C@H]1O.O=C([O-])C(F)(F)F (some centres not stated) | 0.25 µg/mL | ≤ 0.063 µg/mL | 2 µg/mL | 2 µg/mL | 4 µg/mL | 0.5 µg/mL | 16 µg/mL | 64 µg/mL | 16 µg/mL | > 128 µg/mL | > 128 µg/mL |
| CN[C@H](CC(C)C)C(=O)N[C@H]1C(=O)N[C@@H](CC(N)=O)C(=O)N[C@H]2C(=O)N[C@H]3C(=O)N[C@H](C(=O)N[C@H](C(=O)O)c4cc(O)c(CNCCC[S+](C)CC(O)COc5ccc(-c6ccc(Cl)cc6)cc5)c(O)c4-c4cc3ccc4O)[C@H](O)c3ccc(c(Cl)c3)Oc3cc2cc(c3O[C@@H]2O[C@H](CO)[C@@H](O)[C@H](O)[C@H]2O[C@H]2C[C@](C)(N)[C@H](O)[C@H](C)O2)Oc2ccc(cc2Cl)[C@H]1O.O=C([O-])C(F)(F)F (some centres not stated) | ≤ 0.063 µg/mL | ≤ 0.063 µg/mL | 0.5 µg/mL | 2 µg/mL | ≤ 0.063 µg/mL | ≤ 0.063 µg/mL | 8 µg/mL | 16 µg/mL | 16 µg/mL | > 128 µg/mL | 128 µg/mL |
| CN[C@H](CC(C)C)C(=O)N[C@H]1C(=O)N[C@@H](CC(N)=O)C(=O)N[C@H]2C(=O)N[C@H]3C(=O)N[C@H](C(=O)N[C@H](C(=O)NCCCSCC(O)COc4ccc(-c5ccc(C(F)(F)F)cc5)cc4)c4cc(O)cc(O)c4-c4cc3ccc4O)[C@H](O)c3ccc(c(Cl)c3)Oc3cc2cc(c3O[C@@H]2O[C@H](CO)[C@@H](O)[C@H](O)[C@H]2O[C@H]2C[C@](C)(N)[C@H](O)[C@H](C)O2)Oc2ccc(cc2Cl)[C@H]1O (some centres not stated) | 1 µg/mL (≈ 0.55 µM) | 1 µg/mL (≈ 0.55 µM) | 4 µg/mL (≈ 2.2 µM) | 2 µg/mL (≈ 1.1 µM) | 4 µg/mL (≈ 2.2 µM) | 2 µg/mL (≈ 1.1 µM) | > 128 µg/mL | > 128 µg/mL | > 128 µg/mL | > 128 µg/mL | > 128 µg/mL |
| CN[C@H](CC(C)C)C(=O)N[C@H]1C(=O)N[C@@H](CC(N)=O)C(=O)N[C@H]2C(=O)N[C@H]3C(=O)N[C@H](C(=O)N[C@H](C(=O)NCCC[S+](C)CC(O)COc4cccc(Cl)c4)c4cc(O)cc(O)c4-c4cc3ccc4O)[C@H](O)c3ccc(c(Cl)c3)Oc3cc2cc(c3O[C@@H]2O[C@H](CO)[C@@H](O)[C@H](O)[C@H]2O[C@H]2C[C@](C)(N)[C@H](O)[C@H](C)O2)Oc2ccc(cc2Cl)[C@H]1O.O=C([O-])C(F)(F)F (some centres not stated) | 1 µg/mL | 0.125 µg/mL | 16 µg/mL | 4 µg/mL | 8 µg/mL | 2 µg/mL | 16 µg/mL | 64 µg/mL | 32 µg/mL | 128 µg/mL | > 128 µg/mL |
| CN[C@H](CC(C)C)C(=O)N[C@H]1C(=O)N[C@@H](CC(N)=O)C(=O)N[C@H]2C(=O)N[C@H]3C(=O)N[C@H](C(=O)N[C@H](C(=O)O)c4cc(O)cc(O)c4-c4cc3ccc4O)[C@H](O)c3ccc(c(Cl)c3)Oc3cc2cc(c3O[C@@H]2O[C@H](CO)[C@@H](O)[C@H](O)[C@H]2O[C@H]2C[C@](C)(NCCC[S+](C)CC(O)COc3ccccc3)[C@H](O)[C@H](C)O2)Oc2ccc(cc2Cl)[C@H]1O.O=C([O-])C(F)(F)F (some centres not stated) | 1 µg/mL | 0.25 µg/mL | 16 µg/mL | 16 µg/mL | 16 µg/mL | 4 µg/mL | 128 µg/mL | 128 µg/mL | 128 µg/mL | > 128 µg/mL | > 128 µg/mL |
| CN[C@H](CC(C)C)C(=O)N[C@H]1C(=O)N[C@@H](CC(N)=O)C(=O)N[C@H]2C(=O)N[C@H]3C(=O)N[C@H](C(=O)N[C@H](C(=O)NCCC[S+](C)CC(O)COc4ccc(OC)cc4)c4cc(O)cc(O)c4-c4cc3ccc4O)[C@H](O)c3ccc(c(Cl)c3)Oc3cc2cc(c3O[C@@H]2O[C@H](CO)[C@@H](O)[C@H](O)[C@H]2O[C@H]2C[C@](C)(N)[C@H](O)[C@H](C)O2)Oc2ccc(cc2Cl)[C@H]1O.O=C([O-])C(F)(F)F (some centres not stated) | 2 µg/mL | 0.25 µg/mL | 32 µg/mL | 16 µg/mL | 16 µg/mL | 4 µg/mL | 16 µg/mL | 64 µg/mL | 64 µg/mL | > 128 µg/mL | > 128 µg/mL |
| CN[C@H](CC(C)C)C(=O)N[C@H]1C(=O)N[C@@H](CC(N)=O)C(=O)N[C@H]2C(=O)N[C@H]3C(=O)N[C@H](C(=O)N[C@H](C(=O)NCCC[S+](C)CC(O)COc4ccccc4)c4cc(O)cc(O)c4-c4cc3ccc4O)[C@H](O)c3ccc(c(Cl)c3)Oc3cc2cc(c3O[C@@H]2O[C@H](CO)[C@@H](O)[C@H](O)[C@H]2O[C@H]2C[C@](C)(N)[C@H](O)[C@H](C)O2)Oc2ccc(cc2Cl)[C@H]1O.O=C([O-])C(F)(F)F (some centres not stated) | 2 µg/mL | 0.25 µg/mL | 32 µg/mL | 16 µg/mL | 16 µg/mL | 4 µg/mL | 16 µg/mL | > 128 µg/mL | 64 µg/mL | > 128 µg/mL | > 128 µg/mL |
| CN[C@H](CC(C)C)C(=O)N[C@H]1C(=O)N[C@@H](CC(N)=O)C(=O)N[C@H]2C(=O)N[C@H]3C(=O)N[C@H](C(=O)N[C@H](C(=O)O)c4cc(O)cc(O)c4-c4cc3ccc4O)[C@H](O)c3ccc(c(Cl)c3)Oc3cc2cc(c3O[C@@H]2O[C@H](CO)[C@@H](O)[C@H](O)[C@H]2O[C@H]2C[C@](C)(NCCC[S+](C)C[C@@H](O)COc3ccccc3)[C@H](O)[C@H](C)O2)Oc2ccc(cc2Cl)[C@H]1O.O=C([O-])C(F)(F)F (some centres not stated) | 1 µg/mL | 0.25 µg/mL | 16 µg/mL | 16 µg/mL | 16 µg/mL | 4 µg/mL | 128 µg/mL | 128 µg/mL | 128 µg/mL | > 128 µg/mL | > 128 µg/mL |
| CN[C@H](CC(C)C)C(=O)N[C@H]1C(=O)N[C@@H](CC(N)=O)C(=O)N[C@H]2C(=O)N[C@H]3C(=O)N[C@H](C(=O)N[C@H](C(=O)NCCC[S+](C)CC(O)COc4ccc(C(F)(F)F)cc4)c4cc(O)cc(O)c4-c4cc3ccc4O)[C@H](O)c3ccc(c(Cl)c3)Oc3cc2cc(c3O[C@@H]2O[C@H](CO)[C@@H](O)[C@H](O)[C@H]2O[C@H]2C[C@](C)(N)[C@H](O)[C@H](C)O2)Oc2ccc(cc2Cl)[C@H]1O.O=C([O-])C(F)(F)F (some centres not stated) | 1 µg/mL | ≤ 0.063 µg/mL | 16 µg/mL | 8 µg/mL | 8 µg/mL | 4 µg/mL | 32 µg/mL | 64 µg/mL | 32 µg/mL | 128 µg/mL | > 128 µg/mL |
| CN[C@H](CC(C)C)C(=O)N[C@H]1C(=O)N[C@@H](CC(N)=O)C(=O)N[C@H]2C(=O)N[C@H]3C(=O)N[C@H](C(=O)N[C@H](C(=O)NCCC[S+](C)C[C@@H](O)COc4ccccc4)c4cc(O)cc(O)c4-c4cc3ccc4O)[C@H](O)c3ccc(c(Cl)c3)Oc3cc2cc(c3O[C@@H]2O[C@H](CO)[C@@H](O)[C@H](O)[C@H]2O[C@H]2C[C@](C)(N)[C@H](O)[C@H](C)O2)Oc2ccc(cc2Cl)[C@H]1O.O=C([O-])C(F)(F)F (some centres not stated) | 2 µg/mL | 0.25 µg/mL | 32 µg/mL | 16 µg/mL | 16 µg/mL | 2 µg/mL | 16 µg/mL | > 128 µg/mL | 64 µg/mL | > 128 µg/mL | > 128 µg/mL |
| CN[C@H](CC(C)C)C(=O)N[C@H]1C(=O)N[C@@H](CC(N)=O)C(=O)N[C@H]2C(=O)N[C@H]3C(=O)N[C@H](C(=O)N[C@H](C(=O)O)c4cc(O)c(CNCCCSCC(O)COc5ccc(-c6ccc(C(F)(F)F)cc6)cc5)c(O)c4-c4cc3ccc4O)[C@H](O)c3ccc(c(Cl)c3)Oc3cc2cc(c3O[C@@H]2O[C@H](CO)[C@@H](O)[C@H](O)[C@H]2O[C@H]2C[C@](C)(N)[C@H](O)[C@H](C)O2)Oc2ccc(cc2Cl)[C@H]1O (some centres not stated) | 1 µg/mL (≈ 0.541 µM) | 0.125 µg/mL (≈ 0.0677 µM) | 4 µg/mL (≈ 2.17 µM) | 2 µg/mL (≈ 1.08 µM) | 4 µg/mL (≈ 2.17 µM) | 2 µg/mL (≈ 1.08 µM) | > 128 µg/mL | 128 µg/mL (≈ 69.3 µM) | 32 µg/mL (≈ 17.3 µM) | > 128 µg/mL | > 128 µg/mL |
| CN[C@H](CC(C)C)C(=O)N[C@H]1C(=O)N[C@@H](CC(N)=O)C(=O)N[C@H]2C(=O)N[C@H]3C(=O)N[C@H](C(=O)N[C@H](C(=O)O)c4cc(O)c(CNCCC[S+](C)C[C@H](O)COc5ccccc5)c(O)c4-c4cc3ccc4O)[C@H](O)c3ccc(c(Cl)c3)Oc3cc2cc(c3O[C@@H]2O[C@H](CO)[C@@H](O)[C@H](O)[C@H]2O[C@H]2C[C@](C)(N)[C@H](O)[C@H](C)O2)Oc2ccc(cc2Cl)[C@H]1O.O=C([O-])C(F)(F)F (some centres not stated) | 16 µg/mL | 2 µg/mL | > 128 µg/mL | 128 µg/mL | 4 µg/mL | 8 µg/mL | 64 µg/mL | > 128 µg/mL | > 128 µg/mL | > 128 µg/mL | > 128 µg/mL |

Source: ChEMBL document CHEMBL6134868, “Novel Aryl Sulfonium Modification on Vancomycin to Tackle MRSA and VRE In Vitro and In Vivo through Dual Enhanced Cell-Wall and Membrane Inhibition” (J Med Chem, 2025)
